Assay results from ChEMBL document CHEMBL4229331, “Synthesis and biological evaluation of 173-dicarboxylethyl-pyropheophorbide-a amide derivatives for photodynamic therapy” (Bioorg Med Chem Lett, 2018).
Calls of active or inactive are those of the source. The calls are words filed in the database; no cut-off is given here.

What was measured:
[1] = tested on: ECa-109 cell line; assay: Photocytotoxicity against human ECA109 cells assessed as decrease in cell viability at 1 uM preincubated for 24 hrs followed by laser irradiation at 1 to 32 J/Cm'2 by MTT assay; format: functional, cell-based
[2] = Dark toxicity in human ECA109 cells assessed as decrease in cell viability up to 1 uM after 24 hrs by MTT assay; format: cell-based; conditions: eca-109, 24 h
[3] = Octanol/water partition coefficient, log P of the compound by shake-flask method; format: physicochemical
[4] = Dark toxicity in human ECA109 cells assessed as cell viability at 5 uM after 24 hrs by MTT assay (reference value: 80%); format: cell-based, ECa-109; conditions: read-out: Activity
[5] = […] assessed as singlet oxygen release by measuring DPBF oxidation rate in presence of 650 nm light by UV-vis spectrophotometer; format: functional
[6] = tested on: ECa-109 cell line; assay: Induction of apoptosis in human ECA109 cells assessed as increase in late apoptotic/necrotic cells preincubated for 24 hrs followed by laser irradiation at 16 J/cm'2 and measured after 24 hrs by annexin V/propidium iodide staining-based flow cytometric method; format: functional, cell-based
[7] = Drug uptake in cytoplasm of human ECA109 cells at 5 uM incubated for 4 hrs in dark condition by Hoechst 33342 staining-based confocal fluorescence microscopy; format: ADME, subcellular; conditions: eca-109, 4 h
[8] = tested on: ECa-109 cell line; assay: Decrease in tumor volume in human ECA109 cells xenografted in BALB/c nude mouse at 3 mg/kg, iv measured at 21 days post treatment in absence of laser irradiation; format: ADME, organism-based; conditions: in vivo, 504 h
[9] = tested on: ECa-109 cell line; assay: Induction of apoptosis in human ECA109 cells assessed as late apoptotic/necrotic cells at 5 uM preincubated for 24 hrs followed by laser irradiation at 16 J/cm'2 and measured after 24 hrs by annexin V/propidium iodide staining-based flow cytometric method (reference value: 0.08%); format: functional
[10] = tested on: ECa-109 cell line; assay: Induction of apoptosis in human ECA109 cells assessed as early apoptotic cells at 1 uM preincubated for 24 hrs followed by laser irradiation at 16 J/cm'2 and measured after 24 hrs by annexin V/propidium iodide staining-based flow cytometric method (reference value: 2.45%); format: functional
[11] = tested on: ECa-109 cell line; assay: Induction of apoptosis in human ECA109 cells assessed as late apoptotic/necrotic cells at 1 uM preincubated for 24 hrs followed by laser irradiation at 16 J/cm'2 and measured after 24 hrs by annexin V/propidium iodide staining-based flow cytometric method (reference value: 0.08%); format: functional
[12] = Drug uptake in nuclear membrane of human ECA109 cells at 5 uM incubated for 4 hrs in dark condition by Hoechst 33342 staining-based confocal fluorescence microscopy; format: ADME, cell membranes; conditions: eca-109, 4 h
[13] = tested on: ECa-109 cell line; assay: Antitumor activity against human ECA109 cells xenografted in BALB/c nude mouse assessed as decrease in tumor volume at 3 mg/kg, iv measured at 3 to 21 days post treatment in presence of 100 J/cm2 laser irradiation; format: functional, organism-based
[14] = tested on: ECa-109 cell line; assay: Induction of apoptosis in human ECA109 cells assessed as early apoptotic cells at 5 uM preincubated for 24 hrs followed by laser irradiation at 16 J/cm'2 and measured after 24 hrs by annexin V/propidium iodide staining-based flow cytometric method (reference value: 2.45%); format: functional

Row | logP [3] | Drug uptake [7] | Drug uptake [12] | Structure (SMILES) | Activity [1] | Activity [2] | viability at 24 h, 5 µM [4] [%] | K [5] [min⁻¹] | Activity [6] | Activity [8] | Activity [9] [%] | Activity [10] [%] | Activity [11] [%] | Activity [13] | Activity [14] [%]
1 | 3.1 | – | – | CCCCCOC(C)c1c(C)c2cc3nc(c4c5[nH]c(cc6nc(cc1[nH]2)C(C)=C6CC)c(C)c5C(=O)C4)[C@@H](CCC(=O)N(CCC(=O)O)CCC(=O)O)[C@@H]3C (stereo partly specified) | Active | Non-Toxic | 50 | 0.0241 | – | – | – | – | – | – | –
2 | 2.7 | – | – | CCCOC(C)c1c(C)c2cc3nc(c4c5[nH]c(cc6nc(cc1[nH]2)C(C)=C6CC)c(C)c5C(=O)C4)[C@@H](CCC(=O)N(CCC(=O)O)CCC(=O)O)[C@@H]3C (stereo partly specified) | Active | Non-Toxic | 50 | 0.0266 | – | – | – | – | – | – | –
3 | 2.3 | Active | Active | CCC1=C(C)c2cc3[nH]c(cc4nc(c5c6[nH]c(cc1n2)c(C)c6C(=O)C5)[C@@H](CCC(=O)N(CCC(=O)O)CCC(=O)O)[C@@H]4C)c(C)c3C(C)OC (stereo partly specified) | Active | Non-Toxic | 50 | 0.0596 | Dose-dependent effect | Non-Toxic | 81.22 | 7.38 | 60.46 | Active | 5.41

More lines, now with the values behind:

Row | Structure (SMILES) | logP [3] | Drug uptake [7] | Drug uptake [12] | Activity [1] | Activity [2] | viability at 24 h, 5 µM [4] [%] | K [5] [min⁻¹] | Activity [6] | Activity [8] | Activity [9] [%] | Activity [10] [%] | Activity [11] [%] | Activity [13] | Activity [14] [%]
4 | C=Cc1c(C)c2cc3nc(c4c5[nH]c(cc6nc(cc1[nH]2)C(C)=C6CC)c(C)c5C(=O)C4)[C@@H](CCC(=O)O)[C@@H]3C | – | – | – | – | – | – | 0.0578 | – | – | – | – | – | – | –
5 | C=Cc1c(C)c2cc3nc(c4c5[nH]c(cc6nc(cc1[nH]2)C(C)=C6CC)c(C)c5C(=O)C4)[C@@H](CCC(=O)N(CCC(=O)OC)CCC(=O)OC)[C@@H]3C | 3.3 | – | – | – | – | – | – | – | – | – | – | – | – | –
